Laboratory results as given in BindingDB's records for PubMed 25825497 (Eli Lilly).

How the values were obtained:
[1] = molecular target: Mitogen-activated protein kinase kinase kinase 7 (TAK1/MAP3K7) (Homo sapiens) (UniProt O43318); assay: Inhibition of human TAK1 by discoverX kinome scan assay
[2] = molecular target: Serine/threonine-protein kinase OSR1 (OXSR1) (Homo sapiens) (UniProt O95747); assay: Inhibition of human OSR1 by discoverX kinome scan assay
[3] = molecular target: Mitogen-activated protein kinase kinase kinase 12 (DLK/MAP3K12) (Homo sapiens) (UniProt Q12852); assay: Inhibition of human DLK by discoverX kinome scan assay
[4] = molecular target: Serine/threonine-protein kinase PRP4 homolog (PRPF4B) (Homo sapiens) (UniProt Q13523); assay: Inhibition of human PRP4 by discoverX kinome scan assay

Measured: IC50

Chain of Mitogen-activated protein kinase kinase kinase 12 (DLK/MAP3K12) (Homo sapiens) (Q12852 whole entry, looked up): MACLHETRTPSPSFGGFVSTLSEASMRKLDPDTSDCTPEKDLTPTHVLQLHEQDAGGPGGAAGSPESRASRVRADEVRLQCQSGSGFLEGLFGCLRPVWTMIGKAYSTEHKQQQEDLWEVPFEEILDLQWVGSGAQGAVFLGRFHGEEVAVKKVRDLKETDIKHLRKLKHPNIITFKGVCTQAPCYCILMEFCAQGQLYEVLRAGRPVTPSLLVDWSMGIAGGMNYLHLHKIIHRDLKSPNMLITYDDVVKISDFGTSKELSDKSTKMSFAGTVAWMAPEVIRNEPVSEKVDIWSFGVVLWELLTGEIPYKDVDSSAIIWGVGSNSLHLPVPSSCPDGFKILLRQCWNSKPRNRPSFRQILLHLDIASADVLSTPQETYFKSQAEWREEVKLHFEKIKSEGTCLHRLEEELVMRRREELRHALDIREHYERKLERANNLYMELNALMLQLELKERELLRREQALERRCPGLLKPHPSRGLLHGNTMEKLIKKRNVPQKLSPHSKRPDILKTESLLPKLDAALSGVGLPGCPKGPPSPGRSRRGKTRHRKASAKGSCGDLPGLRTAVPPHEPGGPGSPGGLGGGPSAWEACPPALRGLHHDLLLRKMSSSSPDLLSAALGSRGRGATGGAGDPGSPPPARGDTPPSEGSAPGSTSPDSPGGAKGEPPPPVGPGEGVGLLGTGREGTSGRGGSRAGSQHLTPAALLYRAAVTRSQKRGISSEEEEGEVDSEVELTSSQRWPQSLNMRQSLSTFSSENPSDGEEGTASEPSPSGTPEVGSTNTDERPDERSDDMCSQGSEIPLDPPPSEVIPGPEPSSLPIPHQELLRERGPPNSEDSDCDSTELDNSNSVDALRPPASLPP
Chain of Serine/threonine-protein kinase PRP4 homolog (PRPF4B) (Homo sapiens) (Q13523 whole entry, looked up): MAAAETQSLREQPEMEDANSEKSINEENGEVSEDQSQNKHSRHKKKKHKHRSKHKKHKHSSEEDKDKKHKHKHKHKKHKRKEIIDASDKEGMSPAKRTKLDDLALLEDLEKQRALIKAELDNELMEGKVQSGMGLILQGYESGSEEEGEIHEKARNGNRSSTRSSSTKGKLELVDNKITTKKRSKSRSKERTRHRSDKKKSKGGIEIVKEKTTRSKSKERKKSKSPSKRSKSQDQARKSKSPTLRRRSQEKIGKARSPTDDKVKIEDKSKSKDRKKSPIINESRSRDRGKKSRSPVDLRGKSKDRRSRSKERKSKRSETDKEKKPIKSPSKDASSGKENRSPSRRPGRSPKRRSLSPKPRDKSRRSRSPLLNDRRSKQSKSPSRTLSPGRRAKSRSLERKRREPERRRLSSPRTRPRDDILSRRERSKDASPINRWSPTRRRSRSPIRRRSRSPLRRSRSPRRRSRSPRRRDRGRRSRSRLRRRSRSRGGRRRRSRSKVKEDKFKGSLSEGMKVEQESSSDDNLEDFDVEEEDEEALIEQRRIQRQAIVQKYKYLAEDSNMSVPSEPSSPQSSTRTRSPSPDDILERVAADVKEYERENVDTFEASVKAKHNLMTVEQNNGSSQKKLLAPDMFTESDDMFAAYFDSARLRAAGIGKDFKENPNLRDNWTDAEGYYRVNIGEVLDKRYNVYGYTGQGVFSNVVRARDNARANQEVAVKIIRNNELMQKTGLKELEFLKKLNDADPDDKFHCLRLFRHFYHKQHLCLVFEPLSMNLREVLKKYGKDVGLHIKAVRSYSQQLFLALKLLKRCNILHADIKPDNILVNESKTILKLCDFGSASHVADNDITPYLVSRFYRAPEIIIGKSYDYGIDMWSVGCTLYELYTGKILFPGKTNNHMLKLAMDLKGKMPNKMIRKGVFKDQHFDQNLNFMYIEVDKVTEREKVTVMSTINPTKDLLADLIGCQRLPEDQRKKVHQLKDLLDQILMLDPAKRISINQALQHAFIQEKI
Chain of Serine/threonine-protein kinase OSR1 (OXSR1) (Homo sapiens) (O95747 whole entry, looked up): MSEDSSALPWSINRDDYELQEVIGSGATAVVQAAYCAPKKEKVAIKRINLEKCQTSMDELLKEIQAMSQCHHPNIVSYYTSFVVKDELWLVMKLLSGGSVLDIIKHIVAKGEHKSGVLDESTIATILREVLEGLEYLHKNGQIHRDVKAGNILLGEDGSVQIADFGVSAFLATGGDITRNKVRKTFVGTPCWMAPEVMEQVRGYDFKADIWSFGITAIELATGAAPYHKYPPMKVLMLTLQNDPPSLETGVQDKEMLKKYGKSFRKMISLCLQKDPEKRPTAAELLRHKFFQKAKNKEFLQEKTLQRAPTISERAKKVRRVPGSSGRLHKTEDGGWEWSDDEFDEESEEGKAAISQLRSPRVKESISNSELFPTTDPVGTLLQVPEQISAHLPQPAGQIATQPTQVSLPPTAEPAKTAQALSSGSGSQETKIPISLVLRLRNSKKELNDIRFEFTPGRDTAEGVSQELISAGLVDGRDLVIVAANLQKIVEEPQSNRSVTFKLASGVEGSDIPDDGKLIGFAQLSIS
Chain of Mitogen-activated protein kinase kinase kinase 7 (TAK1/MAP3K7) (Homo sapiens) (O43318 whole entry, looked up): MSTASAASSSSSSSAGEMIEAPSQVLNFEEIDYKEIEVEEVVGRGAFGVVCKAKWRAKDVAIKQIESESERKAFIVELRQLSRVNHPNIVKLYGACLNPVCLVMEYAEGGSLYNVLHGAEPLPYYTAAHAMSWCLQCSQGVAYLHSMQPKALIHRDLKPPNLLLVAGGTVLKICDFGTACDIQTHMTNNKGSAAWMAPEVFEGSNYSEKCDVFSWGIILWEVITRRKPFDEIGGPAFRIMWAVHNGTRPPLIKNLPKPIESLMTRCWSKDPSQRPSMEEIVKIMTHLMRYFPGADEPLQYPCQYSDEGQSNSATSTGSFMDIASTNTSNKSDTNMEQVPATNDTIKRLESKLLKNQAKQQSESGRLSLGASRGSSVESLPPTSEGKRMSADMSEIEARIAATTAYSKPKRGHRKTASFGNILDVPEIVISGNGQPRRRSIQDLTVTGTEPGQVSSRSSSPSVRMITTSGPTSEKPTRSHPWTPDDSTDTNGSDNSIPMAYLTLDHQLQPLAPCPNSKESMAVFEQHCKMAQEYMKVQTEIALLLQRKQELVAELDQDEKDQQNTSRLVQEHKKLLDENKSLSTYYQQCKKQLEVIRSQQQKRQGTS

Cc1cn(CCN2CCN(c3ccccc3-c3cc(C#N)cc(C(=O)NCCCN4CCCC4)c3)CC2)c2ccccc12
> 20 µM: all assays above
